Data: US9493482B2, “Compounds and methods for preventing or treating sensory hair cell death” (University of Washington, priority 2015, dated 2016)
Structures can show the parent of a compound that is named as a salt.

Columns and labels:
[1] = Auditory Brainstem Response (ABR) Assay; type: in vivo, rats; settings: Day 24 vs Day 0, FIG. 2
Method: Chronic treatment of rats with aminoglycosides (AGs) such as kanamycin or amikacin results in an elevation of ABR thresholds, typically most pronounced at higher frequencies. For rats, hearing is tested at a range of frequencies to determine the intensity of sound (measured in decibels) necessary to evoke a response. As hearing loss becomes more severe, a higher intensity is needed to evoke a response. Each rat serves as its own control; hearing thresholds are determined at each frequency prior to any treatment and then at 2 weeks after a 10-day course of AG treatment (or control drug exposures).
The ABR assay measures short latency field potentials recorded from the scalp of animals that were sedated or noninvasively immobilized. […] For each animal, hearing thresholds, wave 1 latencies and input-output functions for stimulus frequencies at 2, 4, 8, 16 and 32 kHz were measured prior to any treatment to determine the initial sensitivity and dynamic range of hearing, and then repeated at the end of drug treatment and at the end of the experiment (2-weeks after dosing). […]
ABR records were evaluated by a “blinded”, trained experimenter. Hearing loss (Threshold Shift) was determined by subtracting the threshold during pre-treatment (Day 0) from the final ABR threshold (Day 24; two weeks following treatment). […]

[2] = tested on: kidney; assay: Kidney histopathology after amikacin with or without compound 9; type: in vivo, Fischer 344 rats; settings: amikacin only, section type (longitudinal or cross) not stated, FIG. 4
Method: (§1) The study consisted of three groups of Fischer 344 rats aged 6 weeks and weighing approximately 200 g at the start of the study. Group 1 consisted of six rats, randomly selected to receive amikacin only, Group 2 consisted of six rats chosen randomly to receive amikacin and compound 9, and Group 3 consisted of three rats, 2 rats given compound 9 and 1 rat given only 0.5% Methylcellulose, the diluent for compound 9. All animals receiving amikacin were given 320 mg/kg subcutaneously (SQ) from a freshly prepared solution of amikacin of 40 mg/mL. The compound 9 formulation was prepared by weighing 13.08 mg of compound 9 dissolved in 12 mL of 0.5% MC in saline with vortexing, sonification and homogenization to obtain a solution with concentration at 12 mg/12 mL=1 mg/mL, dose volume is 5 mL/kg (5 mg/kg). The compound 9 solution was given by oral gavage at a dose of 5 mg/kg.
(§2) One day prior to the onset of dosing, blood was drawn from all rats for serum analysis and all rats were put into metabolic cages for 24 hour urine collection and analysis. All rats were returned to normal cages and allowed to eat and drink ad lib. All rats received their assigned treatments for 10 days and then were returned to metabolic cages for the 10th day. […] The pathologist read the slides, blinded to the group from which they were assigned. […]

[3] = Effect of Amikacin and Compound 9 on Kidney Function: creatinine clearance; type: in vivo, Fischer 344 rats; settings: FIG. 3
Method: as §1, §2

| SMILES | Hearing loss (Threshold Shift) ([1]; amikacin alone SC 320 mg/kg/day for 10 days) | kidney histopathology damage score (0-4) ([2]; first stated change (3.9 to 3.6)) | kidney histopathology damage score (0-4) ([2]; second stated change (3.9 to 3.1)) | creatinine clearance (CrCl) post treatment vs baseline ([3]; Group 1: amikacin only 320 mg/kg SQ for 10 days) | Hearing loss (Threshold Shift), high frequency ([1]; AMI/320 (amikacin SC 320 mg/kg/day) + Compound 9 PO 5 mg/kg/day for 10 days) | creatinine clearance (CrCl) post treatment vs baseline ([3]; Group 2: amikacin 320 mg/kg SQ + compound 9 5 mg/kg oral gavage for 10 days) |
| --- | --- | --- | --- | --- | --- | --- |
| NCC[C@H](O)C(=O)N[C@@H]1C[C@H](N)[C@@H](O[C@H]2O[C@H](CN)[C@@H](O)[C@H](O)[C@H]2O)[C@H](O)[C@H]1O[C@H]1O[C@H](CO)[C@@H](O)[C@H](N)[C@H]1O [amikacin] | hearing loss | 3.9 | 3.9 | significantly different from baseline |  |  |
| CN1[C@H]2CC[C@@H]1c1c(sc(NC(=O)Nc3ccc(Cl)cc3)c1C(N)=O)C2 [Compound 9, (4R,7S)-2-(3-(4-chlorophenyl)ureido)-9-methyl-5,6,7,8-tetrahydro-4H-4,7-epiminocyclohepta[b]thiophene-3-carboxamide hydrochloride] |  |  |  |  | robust protection | significantly different from baseline |
